# Measured values published in patent US20110257148A1, “NOVEL 1-ALKYL-3-HYDROXY-3-PHENYLAZETIDINE DERIVATIVES USEFUL AS MODULATORS OF CORTICAL CATECHOLAMINERGIC NEUROTRANSMISSION” (NSAB, FILIAL AF N[…] AB, SVERIGE, priority 2008, published 2011).
# Where a name gives a salt, the structure may show the parent alone.
row,Compound,melting point
1,CC(C)N1CC(O)(c2cc(F)cc(F)c2)C1 (as salt: fumaric acid salt),185 to 186 °C
2,CCCN1CC(O)(c2cc(F)cc(F)c2)C1 (as salt: fumaric acid salt),162 to 164 °C
3,CCCN1CC(O)(c2cc(F)cc(Cl)c2)C1 (as salt: fumaric acid salt),147 to 149 °C
4,"CCCN1CC(O)(c2cccc(Cl)c2F)C1 (as salt: fumaric acid salt) [Example 6, 3-(3-Chloro-2-Fluorophenyl)-1-Propylazetidin-3-Ol]",167 to 168 °C

# Second part, the molecule after the results:
row,melting point,Compound
1,157 to 159 °C,CCCN1CC(O)(c2ccc(F)c(F)c2)C1 (as salt: fumaric acid salt)
2,161 to 165 °C,"CCCN1CC(O)(c2cccc(F)c2F)C1 (as salt: fumaric acid salt) [Example 1, 3-(2,3-DIFLUOROPHENYL)-1-PROPYLAZETIDIN-3-OL]"
